Legend:
Test in all cases: relative viability (nuclei count vs DMSO), 5 days (fraction); higher = more cells survive
Pemetrexed + Lapatinib = compound: Nc1nc2[nH]cc(CCc3ccc(C(=O)N[C@@H](CCC(=O)O)C(=O)O)cc3)c2c(=O)[nH]1 [Pemetrexed] + CS(=O)(=O)CCNCc1ccc(-c2ccc3ncnc(Nc4ccc(OCc5cccc(F)c5)c(Cl)c4)c3c2)o1 [Lapatinib] (partner 2 µM)
How it was run: (§1)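 Lung cancer cell lines were pin-tool dosed in 1536-well plates on the day after seeding, with either a lone drug or a fixed anchor-drug dose plus five library-drug doses (not always all listed) in √10 steps. Nuclei were counted on 4× images after 5 days. Relative viability is the ratio of treated-well to vehicle-well nuclei counts, with each value a median of duplicate plates.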

Pemetrexed + Decitabine = compound: Nc1nc2[nH]cc(CCc3ccc(C(=O)N[C@@H](CCC(=O)O)C(=O)O)cc3)c2c(=O)[nH]1 [Pemetrexed] + Nc1ncn([C@H]2C[C@H](O)[C@@H](CO)O2)c(=O)n1 [Decitabine] (partner 2 µM)
How it was run: as §1

Idelalisib + Pictilisib = compound: CC[C@H](Nc1ncnc2[nH]cnc12)c1nc2cccc(F)c2c(=O)n1-c1ccccc1 [Idelalisib] + CS(=O)(=O)N1CCN(Cc2cc3nc(-c4cccc5[nH]ncc45)nc(N4CCOCC4)c3s2)CC1 [Pictilisib] (partner 1 µM)
How it was run: as §1

Idelalisib + OSI-027 = compound: CC[C@H](Nc1ncnc2[nH]cnc12)c1nc2cccc(F)c2c(=O)n1-c1ccccc1 [Idelalisib] + COc1cccc2cc(-c3nc([C@H]4CC[C@H](C(=O)O)CC4)n4ncnc(N)c34)[nH]c12 [OSI-027] (partner 0.5 µM)
How it was run: as §1

Row | Cell Line | relative viability (Pemetrexed + Lapatinib; first compound 0.002 µM) | relative viability (Pemetrexed + Lapatinib; first compound 0.006325 µM) | relative viability (Pemetrexed + Lapatinib; first compound 0.02 µM) | relative viability (Pemetrexed + Lapatinib; first compound 0.06325 µM) | relative viability (Pemetrexed + Lapatinib; first compound 0.2 µM) | relative viability (Pemetrexed + Decitabine; first compound 0.002 µM) | relative viability (Pemetrexed + Decitabine; first compound 0.006325 µM) | relative viability (Pemetrexed + Decitabine; first compound 0.02 µM) | relative viability (Pemetrexed + Decitabine; first compound 0.06325 µM) | relative viability (Pemetrexed + Decitabine; first compound 0.2 µM) | relative viability (Idelalisib + Pictilisib; first compound 0.04 µM) | relative viability (Idelalisib + Pictilisib; first compound 0.1265 µM) | relative viability (Idelalisib + Pictilisib; first compound 0.4 µM) | relative viability (Idelalisib + Pictilisib; first compound 1.265 µM) | relative viability (Idelalisib + Pictilisib; first compound 4 µM) | relative viability (Idelalisib + OSI-027; first compound 0.04 µM) | relative viability (Idelalisib + OSI-027; first compound 0.1265 µM) | relative viability (Idelalisib + OSI-027; first compound 0.4 µM) | relative viability (Idelalisib + OSI-027; first compound 1.265 µM) | relative viability (Idelalisib + OSI-027; first compound 4 µM)
1 | SW 1573 | 1.12 | 1.11 | 1.19 | 1.07 | 1.12 | 0.577 | 0.662 | 0.615 | 0.53 | 0.525 | 0.547 | 0.523 | 0.513 | 0.668 | 0.393 | 0.625 | 0.656 | 0.518 | 0.492 | 0.531
2 | SK-MES-1 | 0.473 | 0.423 | 0.469 | 0.453 | 0.457 | 0.369 | 0.331 | 0.408 | 0.421 | 0.367 | 0.377 | 0.365 | 0.355 | 0.414 | 0.36 | 0.666 | 0.611 | 0.427 | 0.218 | 0.467
3 | NCI-H1793 | 0.543 | 0.769 | 0.619 | 0.704 | 0.619 | 0.512 | 0.449 | 0.583 | 0.512 | 0.528 | 0.306 | 0.355 | 0.307 | 0.312 | 0.296 | 0.366 | 0.273 | 0.17 | 0.246 | 0.159
4 | LCLC-97TM1 | 1.32 | 0.653 | 1.05 | 1.21 | 0.353 | 0.241 | 0.245 | 0.203 | 0.233 | 0.209 | 0.236 | 0.182 | – | 0.231 | 0.152 | 0.649 | 0.543 | 0.24 | 0.554 | 0.418
5 | NCI-H1915 | 0.945 | 0.988 | 1.1 | 0.987 | 0.971 | 0.263 | 0.258 | 0.243 | 0.25 | 0.26 | 1.22 | 0.952 | 0.881 | 1.08 | 0.9 | 0.699 | 0.633 | 0.627 | 0.739 | 0.53
6 | NCI-H661 | 0.731 | 0.503 | 0.593 | 0.417 | 0.586 | 0.586 | 0.513 | 0.646 | 0.608 | 0.559 | 0.426 | 0.37 | 0.446 | 0.468 | 0.456 | 0.705 | 0.838 | 0.607 | 0.661 | 0.706
7 | NCI-H2405 | 1.13 | 1.05 | 1.14 | 1.04 | 1.07 | 0.717 | 0.649 | 0.691 | 0.687 | 0.685 | 0.492 | 0.471 | 0.387 | 0.401 | 0.447 | 0.675 | 0.648 | 0.433 | 0.612 | 0.516
8 | NCI-H2347 | 0.658 | 0.954 | 0.904 | 0.867 | 0.565 | 0.604 | 0.594 | 0.657 | 0.619 | 0.49 | 0.398 | 0.69 | 0.487 | 0.623 | 0.756 | 0.379 | 0.332 | 0.367 | 0.348 | 0.257
9 | NCI-H1651 | 0.9 | 0.767 | 0.819 | 0.85 | 0.725 | 0.525 | 0.593 | 0.631 | 0.404 | 0.653 | 0.685 | 0.574 | 0.523 | 0.762 | 0.625 | 0.701 | 0.731 | 0.508 | 0.778 | 0.596
10 | H3255 | – | 0.15 | 0.278 | 0.245 | 0.296 | 0.494 | 0.581 | 0.681 | 0.535 | 0.454 | 0.416 | 0.442 | 0.44 | 0.436 | 0.404 | 0.721 | 0.566 | 0.558 | 0.517 | 0.534
11 | NCI-H650 | 0.829 | 0.924 | 0.524 | 0.849 | 0.841 | 0.287 | 0.31 | – | 0.293 | 0.313 | 0.849 | 0.858 | 0.907 | 0.819 | 0.783 | 0.491 | 0.574 | 0.446 | 0.527 | 0.506
12 | NCI-H460 | 0.892 | 0.856 | 0.963 | 0.276 | 0.0581 | – | 0.468 | 0.507 | 0.323 | 0.0945 | 0.363 | 0.318 | 0.315 | 0.36 | 0.359 | 0.911 | 0.794 | 0.469 | 0.571 | 0.45
13 | NCI-H2085 | 0.717 | 0.692 | 0.88 | 0.801 | 0.768 | 0.584 | 0.513 | 0.53 | 0.527 | 0.642 | 0.531 | 0.452 | 0.38 | 0.451 | 0.413 | 0.738 | 1.01 | 0.521 | 0.725 | 0.325
14 | HCC-366 | 1.01 | 1.02 | 1.16 | 0.993 | 0.381 | 0.331 | 0.387 | 0.346 | 0.329 | 0.211 | 0.138 | 0.177 | 0.0975 | 0.165 | 0.146 | 1.09 | 0.889 | 0.598 | 0.788 | 0.677
15 | EPLC-272H | 0.806 | 1.04 | 1.16 | 0.972 | 1.04 | 0.348 | 0.377 | 0.413 | 0.33 | 0.296 | 0.299 | 0.313 | 0.236 | 0.402 | 0.316 | 0.304 | 0.296 | 0.271 | 0.294 | 0.274
16 | 201T | 0.977 | 1.04 | 1.1 | 1.07 | 1 | 0.712 | 0.803 | 0.808 | 0.849 | 0.85 | 0.686 | 0.712 | 0.59 | 0.736 | 0.661 | 0.812 | 0.736 | 0.548 | 0.67 | 0.679
